Results as given in patent US8969516B2, “Method of hydrolysis of peptide bond” (priority 2006, dated 2015).

Assay: MALDI-TOF screening of Ni^2+ dependent hydrolysis in a combinatorial peptide library
Format: physicochemical
Conditions: CH3CO-Gly-Ala-Ser-X-His-Z-Lys-Phe-Leu-NH2 library, Ni^2+ 2 mM, pH 8.2, 10 mM Tris, score=24/tm
From the text: The sequence CH3CO-Gly-Ala-Ser/Thr-X-His-Z-Lys-Phe-Leu-NH2 was designed so that the fixed R1 and R2 sequences, CH3CO-Gly-Ala, and Lys-Phe-Leu-NH2, respectively, allowed optimal detection by MALDI-TOF mass spectrometry of substrates as well as expected products, Ser/Thr-X-His-Z-Lys-Phe-Leu-NH2 and assured separation between the clusters of signals for substrates and products in sublibraries (see below).
Residues in position X included all amino acids commonly present in proteins, except for Asp, Glu, and Cys. The former two contain carboxylates in their side chains, which may bind Ni^2+ in a way which would quench or slow down the hydrolysis reaction. The Cys residue may do the same, and also may engage in side reactions with Ni^2+ ions, including redox processes (for example see Bal and Kasprzak, Toxicol. Lett. 2002, 127, 55-62). Only the Cys residue was eliminated from position Z, for the same reasons.
The synthesis of the library was accomplished on a RINK amide resin (Novabiochem) on a 800 mg scale, according to a typical Fmoc protocol (Fields, Meth. Enzymol. Vol. 289). The resin-attached Leu-Phe-Lys peptide was synthesised first and coupled with the isokinetic mixture of 19 amino acids selected for position Z, and then with the H is residue. The resin carrying the library of pentapeptides was divided into Ser and Thr halves at this stage, and each of these halves into 17 portions, which were coupled with individual amino acids selected for position X. The coupling with Ser or Thr as appropriate, additions of Ala and Gly residues, acetylation of Gly, deprotection and cleavage from the resin were accomplished subsequently. Each of the resulting 34 samples of sublibraries randomized at position X was separated into two portions, one for the reaction at 37° C. and another for the reaction at 45° C. The hydrolysis reactions were accomplished in 10 mM Tris buffers at pH 8.2. The total concentrations of peptide mixtures and Ni^2+ ions were 1 mM and 2 mM, respectively. The pH for the reaction was chosen as selective for highly reactive sequences.
The detection of reaction products was accomplished with the use of a MALDI-TOF mass spectrometer (Micromass). The aliquots were removed from reaction mixtures and measured by MS at 2, 4, 6, and 8 hours of incubation. The progress of reaction was evaluated by visual detection in mass spectra of appearance of signals corresponding to expected products of hydrolysis, Ser/Thr-X-His-Z-Lys-Phe-Leu-NH2, at given measurement times, tm. […] Also the decrease of signals of substrates was controlled in these cases.
Residues X and Z were then sorted according to various molecular parameters, describing their physical properties (Carugo, In Silico Biol. 2003, 3, 0035). […] The Ser library provided a higher number of reactive peptides than the Thr library. Following the additivity of effects, the scores were also summed up in lines and columns of Table 1A-D, thereby creating final rankings for preferred substitutions in positions X and Z.

Substance	hydrolysis score from MALDI-TOF screening (37° C.)	hydrolysis score from MALDI-TOF screening (45° C.)
Ac-GASGHDKFL-NH2 [SGHD]	0 (a score of 0 if no trace of the product of hydrolysis was seen after 8 hours of incubation)	0 (a score of 0 if no trace of the product of hydrolysis was seen after 8 hours of incubation)
Ac-GASGHEKFL-NH2 [SGHE]	0 (a score of 0 if no trace of the product of hydrolysis was seen after 8 hours of incubation)	0 (a score of 0 if no trace of the product of hydrolysis was seen after 8 hours of incubation)
Ac-GASGHFKFL-NH2 [SGHF]	0 (a score of 0 if no trace of the product of hydrolysis was seen after 8 hours of incubation)	0 (a score of 0 if no trace of the product of hydrolysis was seen after 8 hours of incubation)
Ac-GASGHGKFL-NH2 [SGHG]	0 (a score of 0 if no trace of the product of hydrolysis was seen after 8 hours of incubation)	0 (a score of 0 if no trace of the product of hydrolysis was seen after 8 hours of incubation)
Ac-GASGHHKFL-NH2 [SGHH]	0 (a score of 0 if no trace of the product of hydrolysis was seen after 8 hours of incubation)	0 (a score of 0 if no trace of the product of hydrolysis was seen after 8 hours of incubation)
Ac-GASGHIKFL-NH2 [SGHI]	0 (a score of 0 if no trace of the product of hydrolysis was seen after 8 hours of incubation)	3 (a score of 3 for detection at 8 hours)
Ac-GASGHKKFL-NH2 [SGHK]	0 (a score of 0 if no trace of the product of hydrolysis was seen after 8 hours of incubation)	3 (a score of 3 for detection at 8 hours)
Ac-GASGHLKFL-NH2 [SGHL]	0 (a score of 0 if no trace of the product of hydrolysis was seen after 8 hours of incubation)	3 (a score of 3 for detection at 8 hours)
Ac-GASGHMKFL-NH2 [SGHM]	0 (a score of 0 if no trace of the product of hydrolysis was seen after 8 hours of incubation)	0 (a score of 0 if no trace of the product of hydrolysis was seen after 8 hours of incubation)
Ac-GASGHNKFL-NH2 [SGHN]	0 (a score of 0 if no trace of the product of hydrolysis was seen after 8 hours of incubation)	0 (a score of 0 if no trace of the product of hydrolysis was seen after 8 hours of incubation)
Ac-GASGHPKFL-NH2 [SGHP]	0 (a score of 0 if no trace of the product of hydrolysis was seen after 8 hours of incubation)	0 (a score of 0 if no trace of the product of hydrolysis was seen after 8 hours of incubation)
Ac-GASGHQKFL-NH2 [SGHQ]	0 (a score of 0 if no trace of the product of hydrolysis was seen after 8 hours of incubation)	0 (a score of 0 if no trace of the product of hydrolysis was seen after 8 hours of incubation)
Ac-GASGHRKFL-NH2 [SGHR]	3 (a score of 3 for detection at 8 hours)	3 (a score of 3 for detection at 8 hours)
Ac-GASGHSKFL-NH2 [SGHS]	0 (a score of 0 if no trace of the product of hydrolysis was seen after 8 hours of incubation)	0 (a score of 0 if no trace of the product of hydrolysis was seen after 8 hours of incubation)
Ac-GASGHTKFL-NH2 [SGHT]	0 (a score of 0 if no trace of the product of hydrolysis was seen after 8 hours of incubation)	0 (a score of 0 if no trace of the product of hydrolysis was seen after 8 hours of incubation)
Ac-GASGHVKFL-NH2 [SGHV]	0 (a score of 0 if no trace of the product of hydrolysis was seen after 8 hours of incubation)	3 (a score of 3 for detection at 8 hours)
Ac-GASGHWKFL-NH2 [SGHW]	3 (a score of 3 for detection at 8 hours)	4 (a score of 4 for detection at 6 hours)

Substance	hydrolysis score from MALDI-TOF screening (37° C.)	hydrolysis score from MALDI-TOF screening (45° C.)
Ac-GASGHYKFL-NH2 [SGHY]	0 (a score of 0 if no trace of the product of hydrolysis was seen after 8 hours of incubation)	0 (a score of 0 if no trace of the product of hydrolysis was seen after 8 hours of incubation)
Ac-GASHHDKFL-NH2 [SHHD]	0 (a score of 0 if no trace of the product of hydrolysis was seen after 8 hours of incubation)	0 (a score of 0 if no trace of the product of hydrolysis was seen after 8 hours of incubation)
Ac-GASHHEKFL-NH2 [SHHE]	0 (a score of 0 if no trace of the product of hydrolysis was seen after 8 hours of incubation)	0 (a score of 0 if no trace of the product of hydrolysis was seen after 8 hours of incubation)
Ac-GASHHFKFL-NH2 [SHHF]	3 (a score of 3 for detection at 8 hours)	3 (a score of 3 for detection at 8 hours)
Ac-GASHHGKFL-NH2 [SHHG]	3 (a score of 3 for detection at 8 hours)	0 (a score of 0 if no trace of the product of hydrolysis was seen after 8 hours of incubation)
Ac-GASHHHKFL-NH2 [SHHH]	0 (a score of 0 if no trace of the product of hydrolysis was seen after 8 hours of incubation)	0 (a score of 0 if no trace of the product of hydrolysis was seen after 8 hours of incubation)
Ac-GASHHIKFL-NH2 [SHHI]	6 (a score of 6 for detection at 4 hours)	6 (a score of 6 for detection at 4 hours)
Ac-GASHHKKFL-NH2 [SHHK]	6 (a score of 6 for detection at 4 hours)	12 (a score of 12, if it was seen to be partially hydrolysed at 2 hours)
Ac-GASHHLKFL-NH2 [SHHL]	6 (a score of 6 for detection at 4 hours)	6 (a score of 6 for detection at 4 hours)
Ac-GASHHMKFL-NH2 [SHHM]	0 (a score of 0 if no trace of the product of hydrolysis was seen after 8 hours of incubation)	0 (a score of 0 if no trace of the product of hydrolysis was seen after 8 hours of incubation)
Ac-GASHHNKFL-NH2 [SHHN]	0 (a score of 0 if no trace of the product of hydrolysis was seen after 8 hours of incubation)	0 (a score of 0 if no trace of the product of hydrolysis was seen after 8 hours of incubation)
Ac-GASHHPKFL-NH2 [SHHP]	0 (a score of 0 if no trace of the product of hydrolysis was seen after 8 hours of incubation)	0 (a score of 0 if no trace of the product of hydrolysis was seen after 8 hours of incubation)
Ac-GASHHQKFL-NH2 [SHHQ]	0 (a score of 0 if no trace of the product of hydrolysis was seen after 8 hours of incubation)	0 (a score of 0 if no trace of the product of hydrolysis was seen after 8 hours of incubation)
Ac-GASHHRKFL-NH2 [SHHR]	4 (a score of 4 for detection at 6 hours)	6 (a score of 6 for detection at 4 hours)
Ac-GASHHSKFL-NH2 [SHHS]	0 (a score of 0 if no trace of the product of hydrolysis was seen after 8 hours of incubation)	0 (a score of 0 if no trace of the product of hydrolysis was seen after 8 hours of incubation)
Ac-GASHHTKFL-NH2 [SHHT]	0 (a score of 0 if no trace of the product of hydrolysis was seen after 8 hours of incubation)	0 (a score of 0 if no trace of the product of hydrolysis was seen after 8 hours of incubation)
